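Where inhibition never reached the appropriate level, the endpoint shown equals the highest concentration tested. Otherwise, values were interpolated linearly from a five-concentration, 48-hour dose response in 96-well plates. TGI denotes the concentration required for complete inhibition of growth.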
What was measured:
Test in all cases: growth of human tumour cells (NCI), 48 h
[1] = system: 786-0 renal
[2] = system: A498 renal
[3] = system: A549 NSCLC
[4] = system: ACHN renal
[5] = system: BT-549 breast
[6] = system: CAKI-1 renal
[7] = system: CCRF-CEM leukemia
[8] = system: COLO 205 colon
[9] = system: EKVX NSCLC
[10] = system: HCT-116 colon
[11] = system: HCT-15 colon
[12] = system: HL-60(TB) leukemia
[13] = system: HOP-62 NSCLC
[14] = system: HOP-92 NSCLC
[15] = system: HS 578T breast
[16] = system: HT29 colon
[17] = system: IGROV1 ovarian
[18] = system: K-562 leukemia
[19] = system: KM12 colon
[20] = system: M14 melanoma
[21] = system: MALME-3M melanoma
[22] = system: MCF7 breast
[23] = system: MDA-MB-231 breast
[24] = system: MDA-MB-435
[25] = system: MDA-N
[26] = system: MOLT-4 leukemia
[27] = system: NCI-H226 lung
[28] = system: NCI-H23 lung
[29] = system: NCI-H460 lung
[30] = system: NCI-H522 lung
[31] = system: NCI/ADR-RES ovarian
[32] = system: OVCAR-3 ovarian
[33] = system: OVCAR-4 ovarian
[34] = system: OVCAR-5 ovarian
[35] = system: OVCAR-8 ovarian
[36] = system: PC-3 prostate
[37] = system: RPMI-8226 leukemia
[38] = system: RXF 393 renal
[39] = system: SF-268 CNS
[40] = system: SF-295 CNS
[41] = system: SF-539 CNS
[42] = system: SK-MEL-2 melanoma
[43] = system: SK-MEL-28 melanoma
[44] = system: SK-MEL-5 melanoma
[45] = system: SK-OV-3 ovarian
[46] = system: SN12C renal
[47] = system: SNB-19 CNS
[48] = system: SR leukemia
[49] = system: T-47D breast
[50] = system: TK-10 renal
[51] = system: U251 CNS
[52] = system: UACC-257 melanoma
[53] = system: UACC-62 melanoma
[54] = system: UO-31 renal
[55] = system: DU-145 prostate
[56] = system: HCC-2998 colon
[57] = system: LOX IMVI melanoma
[58] = system: SNB-75 CNS
[59] = system: SW-620 colon

Measured: TGI

Cc1cc(S(=O)(=O)N/C(=C(\C#N)C(=O)c2ccccc2)[n+]2ccc(N(C)C)cc2)c([S-])cc1Cl
0.994 µM: [14]
94 µM: [21]
not listed: [55] | [56] | [57] | [58] | [59]
> 100 µM: all other assays above

COc1ccc(C2=Cc3nc2c(-c2ccccc2)c2ccc([nH]2)c(-c2ccccc2)c2nc(c(-c4ccccc4)c4ccc([nH]4)c3-c3ccccc3)C=C2)cc1
91.3 µM: [51]
not listed: [30] | [31] | [37] | [52]
> 100 µM: all other assays above

CN/N=C(/C=C/c1ccccc1)C(C)C
not listed: [2] | [14] | [23] | [29]
> 100 µM: all other assays above

— PubChem BioAssay (NCI)
